Reference: US5278184A, “Synthetic derivatives of pyrrole and pyrrolidine suitable for the therapy of infections caused by rhinoviruses” (Repla Chemical Ltd., priority 1991, dated 1994)
Read-outs that look alike come from different tables or passages of the source.

What was measured:
[1] = tested on: HRV-14; assay: Viral plaque reduction, HRV-14 on HeLa cells; format: cell-based, human rhinovirus; settings: for EC50: Rhinovirus B, HeLa cells, read-out: MIC, HRV-14; for S.I. (Selectivity Index): ratio MTL/MIC / S.I. (Selectivity Index): MTL/MIC ratio: HeLa MTL / HRV-14 MIC; for activity and selectivity to HRV-14 compared with the two previously known compounds: Table 1
[2] = tested on: rhinovirus serotype 89; assay: Protection of HeLa cells from rhinovirus-induced cytopathogenicity (MTT), serotype 89; settings: Enterovirus, 72 h, read-out: MIC, serotype 89
[3] = in vitro; settings: human, hela cells
[4] = tested on: rhinovirus serotype 15; assay: Protection of HeLa cells from rhinovirus-induced cytopathogenicity (MTT), serotype 15; settings: Enterovirus, 72 h, read-out: MIC, serotype 15
[5] = tested on: different rhinoviruses serotypes; assay: Protection of HeLa cells from rhinovirus-induced cytopathogenicity (MTT), all serotypes of Table 3; settings: for EC50: Enterovirus, HeLa, 72 h, read-out: MIC, summary over the serotypes; for effectiveness and selectivity as rhinoviruses inhibiting agent / S.I.: Table 3; for S.I.: nine serotypes, HeLa cells
[6] = tested on: rhinovirus serotype 2; assay: Protection of HeLa cells from rhinovirus-induced cytopathogenicity (MTT), serotype 2; settings: Enterovirus, 72 h, read-out: MIC, serotype 2
[7] = tested on: rhinovirus serotype 14; assay: Protection of HeLa cells from rhinovirus-induced cytopathogenicity (MTT), serotype 14; settings: Enterovirus, 72 h, read-out: MIC, serotype 14
[8] = tested on: rhinovirus serotype 86; assay: Protection of HeLa cells from rhinovirus-induced cytopathogenicity (MTT), serotype 86; settings: Enterovirus, 72 h, read-out: MIC, serotype 86
[9] = tested on: rhinovirus serotype 50; assay: Protection of HeLa cells from rhinovirus-induced cytopathogenicity (MTT), serotype 50; settings: Enterovirus, 72 h, read-out: MIC, serotype 50
[10] = tested on: rhinovirus serotype 22; assay: Protection of HeLa cells from rhinovirus-induced cytopathogenicity (MTT), serotype 22; settings: Enterovirus, 72 h, read-out: MIC, serotype 22
[11] = tested on: rhinovirus serotype 21; assay: Protection of HeLa cells from rhinovirus-induced cytopathogenicity (MTT), serotype 21; settings: Enterovirus, 72 h, read-out: MIC, serotype 21
[12] = tested on: rhinovirus serotype 30; assay: Protection of HeLa cells from rhinovirus-induced cytopathogenicity (MTT), serotype 30; settings: Enterovirus, 72 h, read-out: MIC, serotype 30
[13] = tested on: Virus Vaccinicum (VV); assay: Viral plaque reduction, VV on Vero cells; format: cell-based; settings: Table 1, 50% plaque reduction, 37° C, read-out: MIC, VV
[14] = tested on: Herpes Simplex Virus type 1 (HSV-1); assay: Viral plaque reduction, HSV-1 on Vero cells; format: cell-based; settings: Human alphaherpesvirus 1, Vero, read-out: MIC, HSV-1
[15] = tested on: Vesicular Stomatitis Virus (VSV); assay: microbe, parasite or virus in culture; format: cell-based; settings: Vero, read-out: MIC, VSV
[16] = in vitro; settings: monkey, vero cells
[17] = tested on: Coxsackie Virus B1 (Coxs); assay: Viral plaque reduction, Coxs on Vero cells; format: cell-based; settings: Table 1, 50% plaque reduction, 37° C, read-out: MIC, Coxs
[18] = tested on: Poliomyelitis Virus type 1 (Sb-1); assay: microbe, parasite or virus in culture; format: cell-based; settings: Vero, read-out: MIC, Sb-1
[19] = tested on: HeLa cells
[20] = tested on: rhinoviruses; settings: literature; interaction with proteins of the virus capsid; cited from earlier work
[21] = tested on: HRV-14; settings: Table 1; literature value; read-out: MIC, HRV-14 (comparison compounds); cited from earlier work
[22] = Table 2, 50% reduction of HRV14 plaques
[23] = HRV14, Table 1 and text, 50% plaque reduction, 33° C

Row | Molecule | S.I. (Selectivity Index): ratio MTL/MIC ([1]; Table 2) | EC50 [2] [nM] | MNTC [3] [µM] | EC50 [4] [nM] | EC50 [5] [nM] | S.I. [5] | EC50 [6] [nM] | EC50 [7] [nM] | EC50 [8] [nM] | EC50 [9] [nM] | EC50 [10] [nM] | EC50 [11] [nM] | EC50 [12] [nM] | EC50 [1, 23] [nM] | S.I. (Selectivity Index): MTL/MIC ratio ([1]; Table 1 and text) | EC50 [13] [nM] | EC50 [14] [nM] | EC50 [15] [nM] | MNTC [16] [µM] | EC50 [17] [nM] | also measured
1 | CCOC(=O)c1ccc(OCCCCC(=O)c2ccc(C)s2)cc1 [Compound 514] | > 170 | 300 | > 578 | 900 | 630 | > 917 | 500 | 1700 | 140 | 400 | 1400 | 100 | 140 | – | – | – | – | – | – | – | EC50 [1, 22]: 3400 nM; effectiveness and selectivity as rhinoviruses inhibiting agent [5]: the most effective and selective
2 | Cn1cc(C(=O)CCCCOc2ccc(C3=NCCO3)cc2)cc1C=O [Compound 395] | – | – | > 425 | – | – | – | – | – | – | – | – | – | – | 5000 | > 85 | > 280000 | > 280000 | > 280000 | > 280 | > 280000 | activity and selectivity to HRV-14 compared with the two previously known compounds [1]: less effective, but even more selective to HRV-14; EC50 [18]: > 280000 nM
3 | CCOC(=O)c1ccc(OCCCCC(=O)c2ccc(Cl)s2)cc1 [Compound 360] | – | 300 | > 545 | 1600 | 760 | > 717 | 100 | 2700 | 300 | 400 | 1400 | – | 50 | 2000 | > 272 | > 190000 | > 190000 | > 190000 | > 190 | > 190000 | effectiveness and selectivity as rhinoviruses inhibiting agent [5]: the most effective and selective; EC50 [18]: 80000 nM; cytotoxicity levels [19]: low cytotoxicity levels
4 | Cc1cc(CCCCCCCOc2ccc(C3=NCCO3)cc2)on1 [WIN 51711, 5-{7-[4-(4,5-dihydro-2-oxazolyl)phenoxy]heptyl}-3-methyl-isoxazole, reference compound] | 45 | 900 | – | 300 | 1200 | 23 | 1700 | 600 | 60 | 2000 | 3500 | 600 | 1700 | – | 45 | – | – | – | – | – | inhibition of rhinoviruses [20]: inhibit a wide range of rhinoviruses; EC50 [21]: 400 nM
5 | Cn1cc(C(=O)CCCCOc2ccc(C(=O)O)cc2)cc1C=O [Compound 394] | – | – | > 610 | – | – | – | – | – | – | – | – | – | – | 7000 | > 87 | > 380000 | > 380000 | > 380000 | 380 | > 380000 | activity and selectivity to HRV-14 compared with the two previously known compounds [1]: less effective, but even more selective to HRV-14; EC50 [18]: > 380000 nM
6 | CCCCCCCCCCCCCCOc1ccc(C(C)=O)o1 [RMI-15,731, 1-[5-(tetradecyloxy)-2-furanyl]ethanone] | – | – | – | – | – | – | – | – | – | – | – | – | – | – | – | – | – | – | – | – | inhibition of rhinoviruses [20]: inhibit a wide range of rhinoviruses
7 | O=C(CCCCOc1ccc(C2=NCCO2)cc1)c1ccc(Cl)s1 [Compound 366] | – | – | > 410 | – | – | – | – | – | – | – | – | – | – | 50 | – | > 275000 | > 275000 | > 275000 | > 275 | > 275000 | EC50 [18]: 200000 nM; cytotoxicity levels [19]: low cytotoxicity levels
8 | Cn1cccc1C(=O)CCCCOc1ccc(C2=NCCO2)cc1 [Compound 414] | – | – | > 610 | – | – | – | – | – | – | – | – | – | – | 800 | > 762 | > 300000 | > 300000 | > 300000 | > 300 | > 300000 | EC50 [18]: > 300000 nM; cytotoxicity levels [19]: low cytotoxicity levels
9 | Cc1ccc(C(=O)CCCCOc2ccc(C3=NCCO3)cc2)s1 [Compound 522] | > 100 | 300 | > 291 | 300 | 2000 | > 145 | 1100 | 300 | 140 | 1100 | 11600 | 1700 | 1400 | – | – | – | – | – | – | – | EC50 [1, 22]: 2900 nM
10 | Cc1csc(C(=O)CCCCOc2ccc(C3=NCCO3)cc2)c1 [Compound 529, 2-[5-[4-(4,5-Dihydro-2-oxazolyl)phenoxy]pentanoyl]-4-methylthiophene] | 42 | 2900 | 291 | 200 | 4100 | 71 | 2900 | 1100 | 900 | 4300 | 11600 | 5800 | 5800 | – | – | – | – | – | – | – | EC50 [1, 22]: 6900 nM
11 | CCOC(=O)c1ccc(OCCCCC(=O)c2cc(C=O)n(C)c2)cc1 [Compound 393, 4-[5-[4-(ethoxycarbonyl)phenoxy]pentanoyl]-1-methyl-1H-pyrrole-, -2-carboxaldeide] | 36 | 200 | 50 | 2200 | 1400 | 36 | 500 | 2000 | 140 | 800 | 1100 | 2200 | 1100 | – | – | – | – | – | – | – | EC50 [1, 22]: 1400 nM
12 | 4-ethoxy-2'-hydroxy-4', 6-dimethoxychalcone [RO 09-0410] | – | – | – | – | – | – | – | – | – | – | – | – | – | – | – | – | – | – | – | – | inhibition of rhinoviruses [20]: inhibit a wide range of rhinoviruses
